Format in all cases: cell-based
Assay [1] relates to RT-112 (FGFR3-Tacc3 fusion) cells. Nature of the assay: cell proliferation assay (CellTiterGlo), RT-112 cells. The settings on record: Homo sapiens, RT-112, RT112 cells, 72 hours. The text has this: (§1) In some embodiments, the biological assay assess the ability of the compounds to inhibit cell proliferation.
(§2) In some embodiments, cells (e.g., SNU-16 (FGFR2-amplification) cells) may be suspended and dispensed in plates. In some embodiments, cells (e.g., UM-UC-14 (FGFR3-S249C) cells) may be suspended and dispensed in plates. In some embodiments, cells (e.g., DMS-114 (FGFR1 overexpression) cells) may by suspended and dispensed in plates. In some embodiments, cells (e.g., RT-112 (FGFR3-Tacc3 fusion) cells) may be suspended and dispensed in plates. In some embodiments, to determine the effect of the compounds of the present disclosure on cell proliferation, cells (e.g., SNU-16, UM-UC-14, DMS-114 and […] cells) may be incubated in the presence of vehicle control (e.g., DMSO) or a compound of the present disclosure at varying concentrations and the inhibition of cell growth may be determined by luminescent quantification (e.g., of intracellular ATP content using CellTiterGlo), according to the manufacturers protocol. In some embodiments, to determine the IC50 values, the vehicle-treated cells were normalized as viable cells and the growth was analyzed using a software (e.g., the CDD Vault software (Collaborative Drug Discovery, Burlingame, CA)).
Background: In ATP-based viability assays light output follows the ATP content of the culture.

Assay [2] has as its system UM-UC-14 (FGFR3-S249C) cells. As to the kind of experiment: cell proliferation assay (CellTiterGlo), UM-UC-14 cells. The following applies: UMUC14, 72 h.
Text: as §1, §2

Assay [3] deals with DMS-114 (FGFR1 overexpression) cells. As to the kind of experiment: cell proliferation assay (CellTiterGlo), DMS-114 cells. The settings on record: Homo sapiens, DMS-114, 72 h.
Text: as §1, §2

Assay [4] deals with SNU-16 (FGFR2-amplification) cells. Nature of the assay: cell proliferation assay (CellTiterGlo), SNU-16 cells. The following applies: Homo sapiens, 72 hours.
Text: as §1, §2

Where only a bound is given, the exact number is not on record here.

The record followed here is patent US20240368181A1, “QUINOXALINE DERIVATIVES AND USES THEREOF” (Black Diamond Therapeutics, Inc., priority 2021, published 2024).

The IC50 is the concentration at which inhibition is half-maximal.

`Cc1nc2ccc(Oc3ccc4ncc(-c5cnn(CC6(O)CC6)c5)nc4c3C3CCOC3)c(F)c2[nH]1` (centres unmarked) [Compound 70]: the IC50 in assay [1], in assay [2] and in assay [3] was 20 to 100 nM each time.
On to `Cc1nc2ccc(Oc3ccc4ncc(-c5cnn(CC6CC(F)(F)C6)c5)nc4c3C3=CCOC3(C)C)cc2[nH]1` [Compound 71], for which the values for the IC50 in assay [1], in assay [2] and in assay [3] were 100 to 400 nM, 20 to 100 nM and 100 to 400 nM, respectively.
For `Cc1nc2ccc(Oc3ccc4ncc(-c5cnn(CC6CC(F)(F)C6)c5)nc4c3C3CCOC3)c(F)c2[nH]1` (centres unmarked) [Compound 72], the IC50 was less than 20 nM in assay [1], 20 to 100 nM in assay [2] and 20 to 100 nM in assay [3].
As for `Cc1nc2ccc(Oc3ccc4ncc(-c5cnn(C6CC7(C6)CC(F)(F)C7)c5)nc4c3Cl)cc2[nH]1` [Compound 101], the values for the IC50 in assay [1], in assay [2] and in assay [3] were 100 to 400 nM, 100 to 400 nM and no less than 400 nM, respectively.
In the case of `Cc1nc2ccc(Oc3ccc4ncc(-c5cnn(CC6(O)CC(O)C6)c5)nc4c3Cl)c(F)c2[nH]1` (centres unmarked) [Compound 102], the IC50 in assay [1] is less than 20 nM; in assay [2], less than 20 nM; in assay [3] it was 20 to 100 nM.
For `Cc1nc2ccc(Oc3ccc4ncc(-c5cnn(CC6(O)CC6)c5)nc4c3-n3ccnc3)c(F)c2[nH]1` [Compound 103], the IC50 is 100 to 400 nM in assay [1], 100 to 400 nM in assay [2] and no less than 400 nM in assay [3].
On to `Cc1nc2ccc(Oc3ccc4ncc(-c5cnn([C@@H](C)C6CCC(F)(F)CC6)c5)nc4c3Cl)cc2[nH]1` [Compound 104], for which the IC50 in assay [1] was 20 to 100 nM; in assay [2] it was 20 to 100 nM; in assay [3] it was no less than 400 nM.
`Cc1nc2ccc(Oc3ccc4ncc(-c5cnn([C@H](C)C6CCC(F)(F)CC6)c5)nc4c3Cl)cc2[nH]1` [Compound 105]: the IC50 is 20 to 100 nM in assay [1], 20 to 100 nM in assay [2] and no less than 400 nM in assay [3].
On to `COC1CCN(C(=O)Cn2cc(-c3cnc4ccc(Oc5ccc6nc(C)[nH]c6c5)c(Cl)c4n3)cn2)CC1` [Compound 113], for which the IC50 in assay [1] was 20 to 100 nM; in assay [2], 20 to 100 nM; in assay [3], no less than 400 nM.
Take `CC(=O)N1CCN(C(=O)Cn2cc(-c3cnc4ccc(Oc5ccc6nc(C)[nH]c6c5)c(Cl)c4n3)cn2)CC1` [Compound 114]: the IC50 in assay [1] is 100 to 400 nM; in assay [2], no less than 400 nM; in assay [3] it was no less than 400 nM.
With `Cc1nc2ccc(Oc3ccc4ncc(-c5cnn(CC6CCS(=O)(=O)CC6)c5)nc4c3S(C)(=O)=O)cc2[nH]1` [Compound 116], the IC50 was no less than 400 nM in assay [1], 100 to 400 nM in assay [2] and no less than 400 nM in assay [3].
For `Cc1nc2ccc(Oc3ccc4ncc(-c5cnn(CC6CC(F)(F)C6)c5)nc4c3N3CCCC3=O)cc2[nH]1` [Compound 117], the IC50 in assay [1], in assay [2] and in assay [3] was no less than 400 nM in each case.
On to `Cc1nc2ccc(Oc3ccc4ncc(-c5cnn(C[C@H](C)O)c5)nc4c3Cl)c(F)c2[nH]1` [Compound 118], for which the IC50 in assay [1] was less than 20 nM; in assay [2], less than 20 nM; in assay [3], 100 to 400 nM.
`Cc1nc2ccc(Oc3ccc4ncc(-c5cnn(CC6CC(F)(F)C6)c5)nc4c3NC(=O)CCCCl)cc2[nH]1` [Compound 120]: the figures for the concentration for half-maximal inhibition (IC50) in assay [1], in assay [2] and in assay [3] were 100 to 400 nM, 100 to 400 nM and no less than 400 nM, respectively.
As for `Cc1nc2ccc(Oc3ccc4ncc(-c5cnn([C@@H](C)CO)c5)nc4c3Cl)cc2[nH]1` [Compound 125], the half-maximal inhibitory concentration (IC50) in assay [1] is 20 to 100 nM; in assay [2] it was 20 to 100 nM; in assay [3], no less than 400 nM.
As to `Cc1nc2ccc(Oc3ccc4ncc(-c5cnn(CC6(O)CC6)c5)nc4c3I)cc2[nH]1` [Compound 129], the results for the IC50 in assay [1], in assay [2] and in assay [3] were 20 to 100 nM, 20 to 100 nM and no less than 400 nM, respectively.
Turning to `Cc1nc2ccc(Oc3ccc4ncc(-c5cnn(C(C)(C)CO)c5)nc4c3Cl)c(F)c2[nH]1` [Compound 142], the IC50 in assay [1] was less than 20 nM; in assay [2], less than 20 nM; in assay [3], 100 to 400 nM.
For `Cc1nc2ccc(Oc3ccc4ncc(-c5cnn(CC(=O)N6CCOCC6)c5)nc4c3Cl)c(F)c2[nH]1` [Compound 155], the IC50 in assay [2] was less than 20 nM; in assay [3], 20 to 100 nM.
For `Cc1nc2ccc(Oc3ccc4ncc(-c5cnn(C6CC(=O)C6)c5)nc4c3Cl)c(F)c2[nH]1` [Compound 156] the same measures were less than 20 nM and 20 to 100 nM.
`Cc1nc2cc(Oc3ccc4ncc(-c5cnn(CC6CC(F)(F)C6)c5)nc4c3C(F)F)ccc2[nH]1` [Compound 157]: the IC50 in assay [2] was 20 to 100 nM; in assay [3], 100 to 400 nM.
Turning to `Cc1nc2cc(Oc3ccc4ncc(-c5cnn(CC6CC(F)(F)C6)c5)nc4c3C=O)ccc2[nH]1` [Compound 158], the IC50 in assay [2] and in assay [3] was no less than 400 nM in each case.
On to `Cc1nc2ccc(Oc3ccc4ncc(-c5cnn(CC6CC(F)(F)C6)c5)nc4c3N)cc2[nH]1` [Compound 159], for which the IC50 in assay [2] and in assay [3] was no less than 400 nM throughout.
With `Cc1nc2ccc(Oc3ccc4ncc(-c5cnn(C(C)(C)C6CC(O)C6)c5)nc4c3Cl)cc2[nH]1` (centres unmarked) [Compound 160], the IC50 was in the range of 20 to 100 nM in assay [2] and 100 to 400 nM in assay [3].
For `Cc1nc2ccc(Oc3ccc4ncc(-c5cnn(C6CC7(CC(O)C7)C6)c5)nc4c3Cl)cc2[nH]1` (centres unmarked) [Compound 161], the IC50 in assay [2] is 20 to 100 nM; in assay [3], no less than 400 nM.
With `Cc1nc2ccc(Oc3ccc4ncc(-c5cnn(CC6(O)CC6)c5)nc4c3Cl)c(F)c2[nH]1` [Compound 162], the IC50 in assay [2] and in assay [3] was 20 to 100 nM in each case.
For the compound `Cc1nc2ccc(Oc3ccc4ncc(-c5cnn(C6CCN(C)C7(CC7)C6)c5)nc4c3Cl)cc2[nH]1` (centres unmarked) [Compound 163], the IC50 in assay [2] is 20 to 100 nM; in assay [3], 100 to 400 nM.
Taken in the same sequence, the figures for `Cc1nc2ccc(Oc3ccc4ncc(-c5cnn(CC6(O)CC6)c5)nc4c3C3=CCCC3)cc2[nH]1` [Compound 164] were 20 to 100 nM and 20 to 100 nM.
On to `Cc1nc2ccc(Oc3ccc4ncc(-c5cnn(C6CC7(CC(=O)C7)C6)c5)nc4c3Cl)cc2[nH]1` [Compound 165], for which the IC50 is 20 to 100 nM in assay [2] and no less than 400 nM in assay [3].
Taken in the same sequence, the figures for `Cc1nc2ccc(Oc3ccc4ncc(-c5cnn(C[C@H]6C[C@](C)(O)C6)c5)nc4c3Cl)c(F)c2[nH]1` [Compound 166] were 20 to 100 nM and 100 to 400 nM.
`Cc1nc2ccc(Oc3ccc4ncc(-c5cnn(C[C@H]6C[C@@](C)(O)C6)c5)nc4c3Cl)c(F)c2[nH]1` [Compound 167]: the IC50 in assay [2] is less than 20 nM; in assay [3], 20 to 100 nM.
For `Cc1nc2ccc(Oc3ccc4ncc(-c5cnn([C@H]6C[C@@](C)(O)C6)c5)nc4c3Cl)cc2[nH]1` [Compound 168] the same measures were 20 to 100 nM and no less than 400 nM.
Taken in the same sequence, the figures for `Cc1nc2ncc(Oc3ccc4ncc(-c5cnn(C6CCC(F)(F)CC6)c5)nc4c3Cl)cc2[nH]1` [Compound 169] were no less than 400 nM and no less than 400 nM.
Turning to `Cc1nc2ccc(Oc3ccc4ncc(-c5cnn(C6(C)CC=C(F)CC6)c5)nc4c3Cl)cc2[nH]1` (centres unmarked) [Compound 170], the IC50 in assay [2] was 100 to 400 nM; in assay [3], no less than 400 nM.
Regarding `Cc1nc2ccc(Oc3ccc4ncc(-c5cnn(C6(C)CCC(F)(F)CC6)c5)nc4c3Cl)cc2[nH]1` [Compound 171], the IC50 is 100 to 400 nM in assay [2] and no less than 400 nM in assay [3].
As for `Cc1nc2ccc(Oc3ccc4ncc(-c5cnn([C@H]6C[C@H](O)C6)c5)nc4c3Cl)cc2[nH]1` [Compound 172], the IC50 was 100 to 400 nM in assay [2] and no less than 400 nM in assay [3].
As to `Cc1nc2ccc(Oc3ccc4ncc(-c5cnn([C@H]6C[C@@H](O)C6)c5)nc4c3Cl)cc2[nH]1` [Compound 173], the results for the IC50 in assay [2] and in assay [3] were 20 to 100 nM and 100 to 400 nM, respectively.
For `Cc1nc2ccc(Oc3ccc4ncc(-c5cnn(CC(=O)N6CCC(F)(F)C6)c5)nc4c3Cl)c(F)c2[nH]1` [Compound 174], the IC50 in assay [4] is less than 20 nM; in assay [2], less than 20 nM; in assay [3], 100 to 400 nM.
Take `Cc1nc2ccc(Oc3ccc4ncc(-c5cnn([C@H]6C[C@](C)(O)C6)c5)nc4c3Cl)cc2[nH]1` [Compound 175]: the IC50 was less than 20 nM in assay [4], 20 to 100 nM in assay [2] and 100 to 400 nM in assay [3].
On to `Cc1nc2ccc(Oc3ccc4ncc(-c5cnn(C6CCNC7(CC7)C6)c5)nc4c3Cl)cc2[nH]1` (centres unmarked) [Compound 176], for which the IC50 was 100 to 400 nM in assay [4], less than 20 nM in assay [2] and 100 to 400 nM in assay [3].
With `Cc1nc2ccc(Oc3ccc4ncc(-c5cnn(C6CCC(F)(F)CC6)c5)nc4c3Cl)nc2[nH]1` [Compound 177], the IC50 in assay [4], in assay [2] and in assay [3] was no less than 400 nM in each case.
`Cc1nc2ccc(Oc3ccc4ncc(-c5cnn([C@H]6C[C@H](C(F)(F)F)C6)c5)nc4c3Cl)cc2[nH]1` [Compound 178]: the IC50 in assay [4] was 20 to 100 nM; in assay [2], no less than 400 nM; in assay [3], no less than 400 nM.
